Data taken from patent publication US6583132B1, “Oxidant scavengers” (Duke University, priority 1993, dated 2003).

How the values were obtained:
[1] = tested on: calf pulmonary artery endothelial cell cultures (CPA-47); assay: Paraquat-induced injury of CPA-47 cells, LDH release; type: cell-based; conditions: varying concentrations; Paraquat 2 mM, 24 hours
Description: Calf pulmonary artery endothelial cell cultures (CPA-47) were grown to confluence in Ham's F-12K medium with 10% fetal bovine serum at pH 7.4 and 37° C. Cells were then trypsinized and seeded at equal densities in 24 well plates and grown to 90% confluence. Cells were washed and pre-incubated for 1 hour with varying concentrations of ZnTBAP in MEM or MEM only. Paraquat (2 mM) was added and allowed to incubate for 24 hours. Cell injury was quantitated by measuring the release of cellular lactate dehydrogenase (LDH) into the medium.

Cortical cells = assay: Cell death of cortical cells by EthD-1 staining; type: cell-based, rat; conditions: concentration-response curves
Description: Tissue culture: Mixed neuronal and glial cultures were prepared from embryonic day-18 rat cerebral cortices (Sprague-Dawley, Zivic Miller). Briefly, the cerebral cortices were dissected and enzymatically dissociated by incubation in Ca^++-, Mg^++-free Hank's balanced salt solution (HBSS) supplemented with 10 mM HEPES and 0.25% trypsin for 20 min. at 37° C. The tissue was rinsed and dispersed into single cell suspension by gentle passage through a fire polished Pasteur pipette. The cell suspension was centrifuged and resuspended in Minimum Essential Media (MEM), containing Earle's salts supplemented with 3 g/L glucose, 5% horse serum and 5% fetal bovine serum (growth media). […]
Neurotoxicity studies: Neurotoxicity was determined by the measurement of LDH released in the supernatant media as previously described (Patel et al, Toxicol. Appl. Pharmacol. 115:124 (1991) and Neurotoxicology 14:35 (1992)). LDH was measured by the method of Vassault, Lactate dehydrogenase. […] Briefly, the cells were washed with HBSS, loaded with 20 μM EthD-1 for 30 min,. rinsed and viewed through fluorescence optics. The number of dead cells labeled with EthD-1 were counted in 4-6 randomly selected fields, the numbers averaged to give an estimate of cell death and the experiment was repeated 3 times.

[2] = Paraquat-induced lung injury, BALF analysis; type: in vivo, Mice; conditions: 2.5 mg/ml nebulized 30 minutes twice daily for 2 days; paraquat 45 mg/kg ip; 48 hours
Description: Mice were treated with either paraquat (PQ, 45 mg/kg, ip) or saline (10 ml/kg, ip) and exposed to MnTBAP (2.5 mg/ml, nebulized into a 2 L chamber at 2 L/min for 30 minutes twice daily for 2 days) or room air. Mice were killed 48 hours after start of treatment and lung injury was assessed by analysis of bronchoalveolar lavage fluid (BALF). BALF damage markers used were lactate dehydrogenase (LDH, as units/L), proteins concentration (as mg/dl), and percent of polymorphonuclear leukocytes (PMN).

aconitase = assay: Aconitase activity in cortical cell lysates; type: cell-based, rat; conditions: 200 μM MnTBAP
Description: (§1) Tissue culture: Mixed neuronal and glial cultures were prepared from embryonic day-18 rat cerebral cortices (Sprague-Dawley, Zivic Miller). Briefly, the cerebral cortices were dissected and enzymatically dissociated by incubation in Ca^++-, Mg^++-free Hank's balanced salt solution (HBSS) supplemented with 10 mM HEPES and 0.25% trypsin for 20 min. at 37° C. The tissue was rinsed and dispersed into single cell suspension by gentle passage through a fire polished Pasteur pipette. The cell suspension was centrifuged and resuspended in Minimum Essential Media (MEM), containing Earle's salts supplemented with 3 g/L glucose, 5% horse serum and 5% fetal bovine serum (growth media). The cells were plated in poly-D-lysine-coated multi-well plates: 12-well plates for aconitase measurement, and 24 well plates for toxicity experiments. Cells were maintained at 37° C. in a humidified incubator with 5% CO2/95% air in growth media. Media was not replaced so as to reduce glial overgrowth and neuronal loss. Mature cells (14-17 days in vitro) were used for all experiments.
(§2) Cell treatment: The growth media was replaced with MEM supplemented with 25 mM glucose (MEM-g). For both neurotoxicity studies and aconitase measurement, cells were incubated in the designated treatment for the indicated length of time at 37° C. Unless otherwise specified, antagonists or SOD-mimetics were added 15 min. prior to agonists. For measurement of neurotoxicity, cells were incubated with treatments for 18 hr at 37° C. in MEM-g. To access the ability of antagonists to inhibit acute NMDA toxicity or rescue cells from an ongoing NMDA insult, an alternate paradigm of NMDA treatment was used in addition to the one describe above. In this paradigm, growth media was replaced with HBSS^+ (Ca^++-, Mg^++-free Hank's Balanced Salt Solution supplemented with 2 mM CaCl2, 1 mM NaHCO3, 10 mM HEPES and 5 μM glycine), cells were treated with vehicle or 100 μM NMDA for 15 min. after which HBSS^+ was replaced with MEM-g and cells were returned to the incubator for 18 additional hrs. Antagonsists or SOD-mimetics were added to the cells 15 min. before NMDA exposure or 15, 30 or 60 min. following final media replacement. For determination of Ca^++-dependence, cells were incubated in HBSS^+ with no added Ca^++. When kainate (KA) was used as an agonist, 100 μM D-APV was routinely included to block secondary NMDA receptor activation. Catalase (100 U/ml) was always included when xanthine plus xanthine oxidase (X+XO) was used as a treatment to rule out the contribution of hydrogen peroxide.
Aconitase measurement: For the measurement of aconitase, following treatment with agents, media was removed and cells lysed in ice-cold 50 mM, Tris/HCl, pH 7.4 containing 0.6 mM MnCl2, 1 mM L-cysteine, 1 mM citrate and 0.5% Triton-X 100. The aconitase activity of cell lysates was measured spectrophotometrically by monitoring the formation of cis-aconitate from isocitrate at 240 nm in 50 mM Tris/HCl, pH 7.4, containing 0.6 mM MnCl2 and 20 mM isocitrate at 25° C. (Kreb and Holzach, Biochem. J. 52:527 (1952); Gardner and Fridovich, J. Biol. Chem. 267:8757 (1992)). […] Aconitase activity in cortical cell lysates was inhibited by 0.1 mM potassium ferricyanide or by boiling of sample.

[3] = tested on: Rat pulmonary epithelial cell cultures (L2); assay: Paraquat-induced injury of L2 cells, LDH release; type: cell-based; conditions: 100 μM; Paraquat 2.5 mM, 48 hours
rat cortical cells = assay: Neurotoxicity (LDH release) in cortical cell culture; type: cell-based
Description: as §1, §2
Neurotoxicity studies: Neurotoxicity was determined by the measurement of LDH released in the supernatant media as previously described (Patel et al, Toxicol. Appl. Pharmacol. 115:124 (1991) and Neurotoxicology 14:35 (1992)). LDH was measured by the method of Vassault, Lactate dehydrogenase. In: Methods of Enzymatic Analysis, Bergmeyer HU (ed), Verlag Chemie, Weinheim, pp. 118-126 (1983). Additionally, cell death was confirmed with ethidium-1 homodimer (EthD-1). Briefly, the cells were washed with HBSS, loaded with 20 μM EthD-1 for 30 min,. rinsed and viewed through fluorescence optics. The number of dead cells labeled with EthD-1 were counted in 4-6 randomly selected fields, the numbers averaged to give an estimate of cell death and the experiment was repeated 3 times.

[4] = tested on: calf pulmonary artery endothelial cell cultures (CPA-47); assay: Xanthine oxidase/xanthine-induced injury, LDH release; type: cell-based; conditions: 50 μM, 1 hour pre-incubation; XO plus 200 μM xanthine, 24 hours
Description: In a second study, calf pulmonary artery endothelial cell cultures (CPA-47 (Tissue and Cell 10:535 (1978)) were grown to confluence in Ham's F-12K medium with 10% fetal bovine serum at pH 7.4 and 37° C. Cells were then trypsinized and seeded at equal densities in 24 well plates and grown to 90% confluence. Cells were washed and pre-incubated for 1 hour with 50 μM of MnTBAO in minimum essential medium (MEM) or MEM only. Various amounts of xanthine oxidase (XO) plus 200 μM xanthine (X) were added and allowed to incubate for 24 hours. Cell injury was quantitated by measuring the release of cellular lactate dehydrogenase (LDH) into the medium.

With “Mn(III) tetrakis (4-benzoic acid)porphyrin [MnTBAP]” as the substance, how does the “paraquat-induced LDH release / injury” value [1] read?
Its value is “decreases paraquat-induced LDH release in a dose-dependent manner”.

What about the “neuroprotective effects against PQ^++, NMDA and KA toxicities” value (Cortical cells) of the same substance?
Its value is “markedly increased neuroprotective effects in comparison to ZnTBAP”.

And the “protection against paraquat-induced lung injury” value [2]?
The value was “partial protection”.

What about the “PQ^++-, NMDA- and KA-mediated decreases of aconitase activity” value (aconitase) of the same substance?
Its value is “markedly inhibited”.

And the “paraquat-induced LDH release” value [3]?
The value was “decrease paraquat-induced LDH release”.

What about the “PQ^++-, NMDA- and KA-mediated cell death (LDH release)” value (rat cortical cells; 200 μM MnTBAP, 18 hr) of the same substance?
Its value is “markedly inhibited”.

And the “shift of concentration-response curve for NMDA (LDH)” value (rat cortical cells; 200 μM MnTBAP, 18 hr)?
The value was “complete protection at low concentrations of NMDA”.

What about the “reduction of LDH release” value (rat cortical cells; 200 μM added 30 min. after 15 min. 100 μM NMDA) of the same substance?
Its value is 30%.

What about the “reduction of LDH release” value (rat cortical cells; 200 μM added 60 min. after 15 min. 100 μM NMDA) of the same substance?
The value was 25%.

And the “reduction of LDH release / protective effect” value (rat cortical cells; added 15 min. after 15 min. 100 μM NMDA, 200 μM MnTBAP, 10 μM MK801)?
The value was 38%.

And the “reduction of LDH release” value (rat cortical cells; condition "pre": 15 min. prior to and during 15 min. 100 μM NMDA, measured 18 hr. later)?
The value was 25%.

And the “reduction of LDH release” value (rat cortical cells; condition "pre+post", 100 μM NMDA 15 min.)?
Its value is 51%.

And the “XO/X-induced LDH release” value [4]?
Its value is “decrease in XO/X-induced LDH release”.
